Target: T1, tankyrase-2 (Homo sapiens, UniProt Q9H2K2)
T1 sequence (Q9H2K2 1-1166): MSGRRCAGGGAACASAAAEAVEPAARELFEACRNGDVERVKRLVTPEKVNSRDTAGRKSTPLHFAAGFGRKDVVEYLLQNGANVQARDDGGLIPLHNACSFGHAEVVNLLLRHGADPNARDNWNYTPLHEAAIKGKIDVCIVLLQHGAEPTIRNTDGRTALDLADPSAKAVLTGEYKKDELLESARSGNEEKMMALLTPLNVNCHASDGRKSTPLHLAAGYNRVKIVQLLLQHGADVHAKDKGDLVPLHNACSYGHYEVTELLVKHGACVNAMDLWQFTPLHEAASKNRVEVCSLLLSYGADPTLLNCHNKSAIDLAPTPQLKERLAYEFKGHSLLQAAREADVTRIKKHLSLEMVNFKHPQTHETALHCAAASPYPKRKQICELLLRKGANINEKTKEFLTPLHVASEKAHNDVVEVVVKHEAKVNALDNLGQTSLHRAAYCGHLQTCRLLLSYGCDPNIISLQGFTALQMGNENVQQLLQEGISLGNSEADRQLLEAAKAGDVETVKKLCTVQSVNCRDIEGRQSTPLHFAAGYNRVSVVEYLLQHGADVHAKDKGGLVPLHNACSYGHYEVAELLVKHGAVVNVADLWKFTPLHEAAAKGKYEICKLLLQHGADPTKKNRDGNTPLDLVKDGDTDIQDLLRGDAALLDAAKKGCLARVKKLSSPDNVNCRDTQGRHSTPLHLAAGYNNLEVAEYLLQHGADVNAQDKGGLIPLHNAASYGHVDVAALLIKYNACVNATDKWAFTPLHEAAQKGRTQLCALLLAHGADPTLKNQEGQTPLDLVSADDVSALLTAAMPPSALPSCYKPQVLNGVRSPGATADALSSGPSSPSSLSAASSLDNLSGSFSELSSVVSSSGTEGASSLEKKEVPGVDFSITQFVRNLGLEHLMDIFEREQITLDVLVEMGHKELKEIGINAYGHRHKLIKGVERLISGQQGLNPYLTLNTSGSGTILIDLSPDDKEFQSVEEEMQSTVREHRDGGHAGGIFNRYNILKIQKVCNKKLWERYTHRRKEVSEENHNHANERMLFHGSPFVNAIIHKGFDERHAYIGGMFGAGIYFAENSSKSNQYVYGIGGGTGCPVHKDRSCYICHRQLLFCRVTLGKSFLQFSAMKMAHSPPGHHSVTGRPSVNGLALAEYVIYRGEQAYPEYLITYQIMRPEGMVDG
Assay: X-ray diffraction of tankyrase-2 crystal soaked with the compound
Format: binding
Source text: In the present invention, whether the tankyrase inhibitory compound is a nicotinamide-type compound or an adenosine-type compound can be determined by X-ray diffraction, more specifically a method in which a complex is crystallized from a mixed liquid of a tankyrase crystal prepared beforehand and the tankyrase inhibitory compound, and subjected to X-ray diffraction (soaking method), or a method in which a complex is crystallized from a mixed liquid having the tankyrase inhibitory compound coexisting with tankyrase in a state before the crystallization, and subjected to X-ray diffraction (co-crystallization). Whether the tankyrase inhibitory compound is a dual-type compound can be determined by preparing a crystal under any one of the above-described conditions, and performing X-ray diffraction.
X-ray diffraction data of a tankyrase-2 crystal soaked with the compound prepared in Compound Example 1 was measured with BL26B2 Beam Line in a large synchrotron radiation facility Spring-8 (Sayo-gun, Hyogo). The wavelength of the X-ray was 1.000 Å, and MX-225 (Rayonix, LLC) was used as a detector. The diffraction data was treated with XDS (Kabsch, 2010) and the CCP4 program (Winn et al., 2011).

## CCOc1ccc(-c2n[nH]nc2[C@H]2NC(=O)c3cccc(C)c3N2)cc1 [Compound Example 101, (2R)-2-[5-(4-Ethoxyphenyl)-2H-1,2,3-triazol-4-yl]-8-methyl-2,3-dihydro-1H-quinazolin-4-one]
  binding pocket type by X-ray diffraction: nicotinamide-type compound which binds to the nicotinamide binding pocket of tankyrase

From US20210060016A1, “ANTICANCER AGENT” (JAPANESE FOUNDATION FOR CANCER RESEARCH, priority 2017, published 2021)
